Here are results for one compound from publication PMC5991599, “Anti‐tumor efficacy of a novel CLK inhibitor via targeting RNA splicing and MYC‐dependent vulnerability” (EMBO Molecular Medicine, 2018).

One data set concerns the target T1, HIPK3 (Homo sapiens, UniProt Q9H422).
T1 construct: purchased DiscoverX Corporation (Fremont, CA, USA)
Kind of data set: KINOMEScan-based kinase selectivity assay. The format is binding. Conditions: 300 nmol/L, n = 2. How it is done: (§1) The KINOMEScan‐based kinase selectivity assay was performed at the DiscoverX Corporation (Fremont, CA, USA). The panel of growth inhibition assay and subsequent bioinformatics analysis (Fig EV1) were performed at Eurofins Inc. (St. Charles, MO, USA), using OncoPanel 240 or 60. Details of the procedures of cell proliferation assay, caspase‐3/7 activity assay, immunoblotting, and immunohistochemistry are described in Appendix Supplementary Methods.

The next data set deals with T2, FLT3 D835Y (Homo sapiens, UniProt P36888, D835Y).
T2 construct: purchased DiscoverX Corporation (Fremont, CA, USA)
Kind of data set: KINOMEScan-based kinase selectivity assay. The format is binding. Conditions: 300 nmol/L, n = 2. How it is done: as §1

The target in the next data set is T3, HIPK4 (Homo sapiens, UniProt Q8NE63).
T3 construct: purchased DiscoverX Corporation (Fremont, CA, USA)
T3 sequence (Q8NE63 whole entry): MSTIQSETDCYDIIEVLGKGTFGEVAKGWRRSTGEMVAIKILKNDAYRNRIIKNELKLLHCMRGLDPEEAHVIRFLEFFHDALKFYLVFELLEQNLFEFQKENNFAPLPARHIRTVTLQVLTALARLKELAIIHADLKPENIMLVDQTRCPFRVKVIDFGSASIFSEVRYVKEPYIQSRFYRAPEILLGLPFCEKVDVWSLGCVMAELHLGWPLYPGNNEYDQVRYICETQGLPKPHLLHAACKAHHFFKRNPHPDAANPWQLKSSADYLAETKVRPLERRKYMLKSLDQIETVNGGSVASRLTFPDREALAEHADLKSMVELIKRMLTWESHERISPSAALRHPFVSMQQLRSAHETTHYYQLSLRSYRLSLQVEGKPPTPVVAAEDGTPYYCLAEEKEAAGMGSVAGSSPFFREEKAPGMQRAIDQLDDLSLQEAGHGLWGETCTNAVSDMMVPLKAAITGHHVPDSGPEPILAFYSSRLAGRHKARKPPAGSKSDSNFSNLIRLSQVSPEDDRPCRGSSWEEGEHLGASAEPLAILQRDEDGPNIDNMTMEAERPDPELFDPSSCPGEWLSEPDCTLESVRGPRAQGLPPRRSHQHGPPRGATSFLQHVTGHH
Kind of data set: KINOMEScan-based kinase selectivity assay. The class given is binding. Conditions: 300 nmol/L, n = 2. How it is done:
as §1

The nature of data set [1]: Pharmacokinetics evaluation, unbound plasma concentration after oral administration. The format is in vivo. The note with it: nude mice, mean, calculated using protein binding. On the procedure:
The black dotted line indicates the relative ATP value prior to treatment (Day 0). • C The number of AS events modulated by T‐025 treatment for 6 h in MDA‐MB‐468 cells. The numbers of AS events with a BF > 20 and |ΔPSI| > 0.1 were counted and categorized according to the AS type (SE, skipped exon; RI, retained intron; A5′SS, alternative 5′‐splice‐site; A3′SS, alternative 3′‐splice‐site; MEE, mutually exclusive exon; AFE, alternative first exon; ALE, alternative last exon). • D–F MDA‐MB‐468 xenograft tumors treated with 50 mg/kg of T‐025 were sampled and analyzed by immunohistochemistry […], immunoblotting (E), or RT–PCR (F). Representative images of pCLK2 stained tumors and scale bar (30 μm) are shown. Also shown: The mean unbound plasma T‐025 concentration was calculated using protein binding after oral administration. • G, H Anti‐tumor efficacy of T‐025 in MDA‐MB‐468 xenograft models. T‐025 was administered twice daily on 2 days per week (red arrows). Tumor volume (G) and body weight (H) during the efficacy study are shown as means ± s.e.m. (n = 5). Data information: In (B, D, and F), data are shown as the means ± s.d. of three independent experiments (n = 3). In (G and H), an unpaired Student's t‐test was performed.Source data are available online for this figure. TEXT PRINTED IN THE PICTURE: (D) T-025: Unbound plasma Conc. (nmol/L): 554 (50 mg/kg; 2 h); Unbound plasma Conc. (nmol/L): 97 (50 mg/kg; 4 h); Unbound plasma Conc. (nmol/L): 105 (50 mg/kg; 8 h); Unbound plasma Conc. (nmol/L): 0 (50 mg/kg; 24 h)
Then, we evaluated T‐025 in an animal model.

In a further data set the target is DYRK1B (Homo sapiens, UniProt Q9Y463). Kind of data set: KINOMEScan-based kinase selectivity assay. Also on record: purchased DiscoverX Corporation (Fremont, CA, USA). The class given is binding. On the procedure: (§2) The KINOMEScan‐based kinase selectivity assay was performed at the DiscoverX Corporation (Fremont, CA, USA). The panel of growth inhibition assay and subsequent bioinformatics analysis (Fig EV1) were performed at Eurofins Inc. (St. […] Details of the procedures of cell proliferation assay, caspase‐3/7 activity assay, immunoblotting, and immunohistochemistry are described in Appendix Supplementary Methods.
DYRK1B, sequence (Q9Y463 whole entry): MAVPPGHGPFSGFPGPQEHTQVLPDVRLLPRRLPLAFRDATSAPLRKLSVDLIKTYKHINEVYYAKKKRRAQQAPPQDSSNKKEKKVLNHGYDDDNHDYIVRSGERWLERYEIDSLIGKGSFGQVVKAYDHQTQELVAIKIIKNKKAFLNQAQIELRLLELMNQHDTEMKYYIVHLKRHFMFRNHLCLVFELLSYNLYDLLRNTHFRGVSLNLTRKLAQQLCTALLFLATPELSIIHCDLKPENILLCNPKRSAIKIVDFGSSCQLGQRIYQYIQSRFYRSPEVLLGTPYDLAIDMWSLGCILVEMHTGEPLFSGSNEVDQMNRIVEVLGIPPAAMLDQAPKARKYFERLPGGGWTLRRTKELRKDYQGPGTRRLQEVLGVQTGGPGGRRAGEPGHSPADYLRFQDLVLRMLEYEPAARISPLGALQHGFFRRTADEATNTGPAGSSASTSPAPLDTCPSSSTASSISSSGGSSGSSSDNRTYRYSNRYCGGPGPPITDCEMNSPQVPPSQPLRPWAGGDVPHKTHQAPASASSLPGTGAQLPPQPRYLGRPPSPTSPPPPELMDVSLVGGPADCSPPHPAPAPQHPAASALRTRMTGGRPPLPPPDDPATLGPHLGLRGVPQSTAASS

In the next data set the target is HIPK2 (Homo sapiens, UniProt Q9H2X6). Kind of data set: KINOMEScan-based kinase selectivity assay. The format is binding. Also on record: purchased DiscoverX Corporation (Fremont, CA, USA). How it is done: as §2
HIPK2, sequence (Q9H2X6 whole entry): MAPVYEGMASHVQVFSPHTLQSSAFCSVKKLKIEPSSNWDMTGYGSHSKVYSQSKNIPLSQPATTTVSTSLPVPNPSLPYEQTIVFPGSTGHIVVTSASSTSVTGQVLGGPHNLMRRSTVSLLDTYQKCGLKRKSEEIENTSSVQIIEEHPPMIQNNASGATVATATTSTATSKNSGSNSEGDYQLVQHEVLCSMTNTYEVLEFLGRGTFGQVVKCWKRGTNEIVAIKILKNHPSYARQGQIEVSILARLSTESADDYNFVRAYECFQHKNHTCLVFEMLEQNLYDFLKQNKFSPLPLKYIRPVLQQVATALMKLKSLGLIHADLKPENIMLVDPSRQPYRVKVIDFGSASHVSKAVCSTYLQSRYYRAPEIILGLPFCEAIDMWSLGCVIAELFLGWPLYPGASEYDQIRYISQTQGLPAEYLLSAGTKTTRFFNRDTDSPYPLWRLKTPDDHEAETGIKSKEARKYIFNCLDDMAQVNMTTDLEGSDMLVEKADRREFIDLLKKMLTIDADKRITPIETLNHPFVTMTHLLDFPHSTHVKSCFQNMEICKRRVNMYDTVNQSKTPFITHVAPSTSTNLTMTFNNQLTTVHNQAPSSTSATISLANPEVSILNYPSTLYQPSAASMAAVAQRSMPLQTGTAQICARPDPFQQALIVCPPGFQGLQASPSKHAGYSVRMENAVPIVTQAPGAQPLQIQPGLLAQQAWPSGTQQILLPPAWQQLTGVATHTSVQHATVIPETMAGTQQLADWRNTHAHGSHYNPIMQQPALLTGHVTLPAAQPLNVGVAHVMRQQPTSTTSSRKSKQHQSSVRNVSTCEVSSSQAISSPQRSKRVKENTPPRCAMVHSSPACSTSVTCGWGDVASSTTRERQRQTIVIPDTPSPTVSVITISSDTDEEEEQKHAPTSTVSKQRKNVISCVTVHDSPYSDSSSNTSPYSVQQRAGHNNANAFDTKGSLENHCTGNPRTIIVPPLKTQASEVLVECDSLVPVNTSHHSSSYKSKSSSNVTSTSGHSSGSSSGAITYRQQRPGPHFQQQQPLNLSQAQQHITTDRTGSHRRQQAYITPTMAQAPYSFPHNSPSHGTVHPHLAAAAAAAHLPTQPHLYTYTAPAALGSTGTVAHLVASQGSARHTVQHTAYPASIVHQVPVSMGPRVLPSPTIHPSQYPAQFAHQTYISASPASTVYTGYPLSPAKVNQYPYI
A further data set relates to MEG01. Kind of data set: Panel of growth inhibition assays (OncoPanel 240). The format is cell-based. Conditions: Homo sapiens, MEG-01; 72 h; leukemia; read-out: IC50 (Oncopanel, cell count). How it is done:
as §1
(§3) Panel of growth inhibition assay and subsequence bioinformatics analysis (at […]
(§4) A growth inhibition assay panel and subsequent bioinformatics analysis were performed at Eurofins Inc. (MO, U.S.A.) by utilizing Oncopanel240 or 60.
(§5) According to the study reports from Eurofins Inc., cells were seeded into 384 well plates at a single cell density in standardized media. After 24 hours, the test compounds were added and the plate was incubated continuously for 72 hours. Cells were then fixed and stained to visualize nuclei. The number of nuclei was counted and normalized.
(§6) Cellular response parameters were calculated using nonlinear regression to a sigmoidal single-site dose response model and the IC50 value of each cell line was calculated.
(§7) Genomic features were binned into six distinct categories, each of which was considered to be a “biomarker-positive” grouping: Mutated (non-synonymous, coding, and non-coding mutations), Amplified, Deleted, Overexpressed, Mutated or amplified (gain-of-function), and Mutated or deleted (loss-of-function). Two orthogonal significance tests were performed on each genomic feature as follows.
(§8) Student’s t-test: For each genomic feature within each of the six above categories, IC50 cell count values for biomarker-positive and biomarker-negative groups were […]

For another data set, the system named is K562. The data set can be described thus: Panel of growth inhibition assays (OncoPanel 240). The format is cell-based. Conditions: Homo sapiens, 72 h, leukemia, read-out: IC50 (Oncopanel, cell count). How it is done:
as §1, §3, §4, §5, §6, §7, §8

For a further data set, the system named is MV-4-11. Kind of data set: Panel of growth inhibition assays (OncoPanel 240). The note with it: Homo sapiens, MV4-11; 72 h; leukemia; read-out: IC50 (Oncopanel, cell count). The format is cell-based. On the procedure:
as §1, §3, §4, §5, §6, §7, §8

For another data set, the system named is DOHH2. The data set can be described thus: Panel of growth inhibition assays (OncoPanel 240). The format is cell-based. The note with it: Homo sapiens, DOHH-2; 72 h; lymphoma; read-out: IC50 (Oncopanel, cell count). On the procedure: as §1, §3, §4, §5, §6, §7, §8
The test system of a further data set is U266B1. Kind of data set: Panel of growth inhibition assays (OncoPanel 240). The class given is cell-based. Conditions: 72 h; myeloma; read-out: IC50 (Oncopanel, cell count). How it is done: as §1, §3, §4, §5, §6, §7, §8
In the next data set the test system is THP1. The data set can be described thus: Panel of growth inhibition assays (OncoPanel 240). The format is cell-based. Conditions: Homo sapiens, THP-1; 72 h; leukemia; read-out: IC50 (Oncopanel, cell count). On the procedure: as §1, §3, §4, §5, §6, §7, §8
The next data set deals with NALM6. Kind of data set: Panel of growth inhibition assays (OncoPanel 240). The format is cell-based. Conditions: Homo sapiens, NALM-6; 72 h; leukemia; read-out: IC50 (Oncopanel, cell count). How it is done:
as §1, §3, §4, §5, §6, §7, §8

The subject of another data set is DB. Kind of data set: Panel of growth inhibition assays (OncoPanel 240). The class given is cell-based. The note with it: Homo sapiens, 72 h, lymphoma, read-out: IC50 (Oncopanel, cell count). On the procedure:
as §1, §3, §4, §5, §6, §7, §8

Another data set deals with BV173. Kind of data set: Panel of growth inhibition assays (OncoPanel 240). The class given is cell-based. Conditions: Homo sapiens, BV-173; 72 h; leukemia; read-out: IC50 (Oncopanel, cell count). On the procedure: as §1, §3, §4, §5, §6, §7, §8
The next data set concerns HEL9217. The data set can be described thus: Panel of growth inhibition assays (OncoPanel 240). The format is cell-based. The note with it: Homo sapiens, HEL 92.1.7; 72 h; leukemia; read-out: IC50 (Oncopanel, cell count). On the procedure: as §1, §3, §4, §5, §6, §7, §8

T1 sequence (Q9H422 whole entry): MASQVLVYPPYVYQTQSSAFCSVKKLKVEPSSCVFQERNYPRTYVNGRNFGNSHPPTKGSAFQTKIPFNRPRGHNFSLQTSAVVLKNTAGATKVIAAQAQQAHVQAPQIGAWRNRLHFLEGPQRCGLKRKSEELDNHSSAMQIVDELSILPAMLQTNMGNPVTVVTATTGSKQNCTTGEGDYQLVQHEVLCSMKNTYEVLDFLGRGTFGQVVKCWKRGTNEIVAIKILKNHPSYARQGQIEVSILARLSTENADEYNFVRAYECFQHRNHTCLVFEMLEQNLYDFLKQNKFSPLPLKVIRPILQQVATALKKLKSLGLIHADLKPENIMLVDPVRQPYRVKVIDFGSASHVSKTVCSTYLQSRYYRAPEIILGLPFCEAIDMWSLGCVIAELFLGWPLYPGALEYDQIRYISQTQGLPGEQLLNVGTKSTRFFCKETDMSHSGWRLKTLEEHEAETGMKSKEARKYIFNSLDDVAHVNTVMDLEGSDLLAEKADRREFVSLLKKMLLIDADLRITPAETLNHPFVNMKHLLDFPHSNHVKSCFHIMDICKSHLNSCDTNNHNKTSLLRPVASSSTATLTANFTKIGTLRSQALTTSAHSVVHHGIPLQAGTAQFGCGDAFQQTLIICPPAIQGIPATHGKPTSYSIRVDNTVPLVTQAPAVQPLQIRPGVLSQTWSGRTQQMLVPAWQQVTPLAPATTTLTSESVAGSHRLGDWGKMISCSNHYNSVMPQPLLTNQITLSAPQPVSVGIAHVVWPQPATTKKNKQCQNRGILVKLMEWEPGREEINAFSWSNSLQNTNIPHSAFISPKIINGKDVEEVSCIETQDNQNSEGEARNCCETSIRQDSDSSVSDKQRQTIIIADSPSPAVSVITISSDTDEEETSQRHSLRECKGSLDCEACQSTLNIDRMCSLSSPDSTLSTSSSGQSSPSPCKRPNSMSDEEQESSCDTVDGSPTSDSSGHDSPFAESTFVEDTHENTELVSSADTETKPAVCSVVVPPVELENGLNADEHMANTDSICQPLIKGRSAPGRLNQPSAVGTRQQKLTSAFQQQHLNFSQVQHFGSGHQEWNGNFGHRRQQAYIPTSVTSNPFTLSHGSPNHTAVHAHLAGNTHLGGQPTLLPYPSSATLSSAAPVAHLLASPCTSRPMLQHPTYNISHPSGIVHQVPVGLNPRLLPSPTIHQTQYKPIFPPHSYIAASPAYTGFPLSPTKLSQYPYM

`CNc1nc(NCc2ncccn2)c2c(-c3ccc4ncccc4c3)c[nH]c2n1` [T-025, N ^2‐methyl‐N ^4‐[pyrimidin‐2‐ylmethyl]‐5‐[quinolin‐6‐yl]‐7H‐pyrrolo[2,3‐d]pyrimidine‐2,4‐diamine]: the inhibition at 0.3 µM on HIPK3 came out at 95.1%; at FLT3 D835Y it was 93.3%; on HIPK4, 95.6%; at DYRK1B (300 nmol/L, n = 2), 99.6%; against HIPK2 (300 nmol/L, n = 2), 96%. Moreover, the “Unbound plasma Conc.” value in [1] (oral 50 mg/kg, 8 h) was 0.104 µM. For the same compound, in data set [1] (nude, mouse, plasma, po, 50 mg/kg, 2 h, read-out: Unbound plasma Conc.), the concentration at 2 h was 0.554 µM. Besides, in data set [1] (nude, mouse, plasma, po, 50 mg/kg, 4 h, read-out: Unbound plasma Conc.), the concentration at 4 h was 0.097 µM. For the same compound, in data set [1] (nude, mouse, plasma, po, 50 mg/kg, 8 h, read-out: Unbound plasma Conc.), the concentration at 8 h was 0.105 µM. Besides, in data set [1] (nude, mouse, plasma, po, 50 mg/kg, 24 h, read-out: Unbound plasma Conc.), the concentration at 24 h was 0 µM. Moreover, the Kd is 0.0015 µM at DYRK1B and 0.096 µM at HIPK2. Also, the IC50 in the data set on MEG01 turned out to be 0.305 µM; in the data set with K562 it was 0.129 µM; in the data set with MV-4-11, 0.0301 µM; in the data set on DOHH2, 0.0395 µM; in the data set on U266B1, 0.0351 µM; in the data set with THP1, 0.228 µM. In addition, the IC50 with NALM6 came to 0.0526 µM; in the data set on DB, 0.0433 µM; in the data set with BV173 it was 0.0218 µM; in the data set on HEL9217 it was 0.0383 µM.
